Assays:
[1] = target: T1, Mcl-1/Bim interaction, recombinant human Mcl-1 (171-327) (Homo sapiens, UniProt Q07820); experiment: Cell free Mcl-1: Bim Affinity Assay (Mcl-1 HTRF); assay type: binding
T1 construct: made in house
Procedure, shortened: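 Read-out is time-resolved FRET after overnight incubation, using a biotin-labelled peptide from human Bim (51-76) as the binding partner; IC50 was derived from competition curves.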

[2] = test system: OPM-2 human multiple myeloma cell line; experiment: Cell Viability Assay (OPM-2 10 FBS); assay type: cell-based; conditions: Homo sapiens, OPM-2, 16 h, OPM-2 cells, 16 h, CellTiter-Glo
Procedure, shortened: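 ATP-based luminescence (CellTiter-Glo) measured after a 16 h compound treatment of OPM-2 cells seeded at 3000 cells/well in 10% FBS medium. IC50 values derived by 4-parameter logistic fitting of serial dilutions.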

[3] = TR-FRET, 0.1 nM Mcl-1 (171-327), 0.05 nM biotin-Bim (51-76)
[4] = cell free Mcl-1:Bim TR-FRET, recombinant human Mcl-1 (171-327)

T1 sequence (Q07820 171-327): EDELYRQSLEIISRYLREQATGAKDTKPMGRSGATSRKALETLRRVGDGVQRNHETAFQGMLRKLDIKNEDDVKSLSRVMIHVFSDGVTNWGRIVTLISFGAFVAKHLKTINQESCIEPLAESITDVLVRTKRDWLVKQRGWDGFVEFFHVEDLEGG

Compound	IC50 [1, 3]	IC50 [2]	IC50 [1, 4]
Cc1noc(C)c1CO[C@H]1/C=C/CC[C@@H](C)S(=O)(=O)NC(=O)c2ccc3c(c2)N(C[C@@H]2CC[C@H]21)C[C@@]1(CCCc2cc(Cl)ccc21)CO3 [Example 409, (1S,3′R,6′R,7′S,8′E,12′R)-6-chloro-7′-((3,5-dimethyl-4-isoxazolyl)methoxy)-12′-methyl-3,4-dihydro-2H,15′H-spiro[naphthalene-1,22′-[20]oxa[13]thia[1,14]diazatetracyclo[14.7.2.0^3,6.0^19,24]pentacosa [8,16,18,24]tetraen]-15′-one 13′,13′-dioxide]	1.27 nM	751 nM	
Cc1cc(CO[C@H]2/C=C/CC[C@@H](C)S(=O)(=O)NC(=O)c3ccc4c(c3)N(C[C@@H]3CC[C@H]32)C[C@@]2(CCCc3cc(Cl)ccc32)CO4)no1 [Example 411, (1S,3′R,6′R,7′S,8′E,12′R)-6-chloro-12′-methyl-7′-((5-methyl-3-isoxazolyl)methoxy)-3,4-dihydro-2H,15′H-spiro[naphthalene-1,22′-[20]oxa[13]thia[1,14]diazatetracyclo[14.7.2.0^3,6.0^19,24]pentacosa [8,16,18,24]tetraen]-15′-one 13′,13′-dioxide]	1.29 nM	2410 nM	
C[C@@H]1CC/C=C/[C@H](O[C@H]2CCOC2=O)[C@@H]2CC[C@H]2CN2C[C@@]3(CCCc4cc(Cl)ccc43)COc3ccc(cc32)C(=O)NS1(=O)=O [Example 413]	0.358 nM	374 nM	
C[C@@H]1CC/C=C/[C@H](OCc2cnnn2C)[C@@H]2CC[C@H]2CN2C[C@@]3(CCCc4cc(Cl)ccc43)COc3ccc(cc32)C(=O)NS1(=O)=O [Example 416, (1S,3′R,6′R,7′S,8′E,12′R)-6-chloro-12′-methyl-7′-((1-methyl-1H-1,2,3-triazol-5-yl)methoxy)-3,4-dihydro-2H,15′H-spiro[naphthalene-1,22′-[20]oxa[13]thia[1,14]diazatetracyclo[14.7.2.0^3,6.0^19,24]pentacosa [8,16,18,24]tetraen]-15′-one 13′,13′-dioxide]	0.377 nM	1060 nM	
C[C@@H]1CC/C=C/[C@H](OCc2cn(C)nn2)[C@@H]2CC[C@H]2CN2C[C@@]3(CCCc4cc(Cl)ccc43)COc3ccc(cc32)C(=O)NS1(=O)=O [Example 417, (1S,3′R,6′R,7′S,8′E,12′R)-6-chloro-12′-methyl-7′-((1-methyl-1H-1,2,3-triazol-4-yl)methoxy)-3,4-dihydro-2H,15′H-spiro[naphthalene-1,22′-[20]oxa[13]thia[1,14]diazatetracyclo[14.7.2.0^3,6.0^19,24]pentacosa [8,16,18,24]tetraen]-15′-one 13′,13′-dioxide]	0.214 nM	834 nM	
CC[C@@H]1CC/C=C/[C@H](OC(C)=O)[C@@H]2CC[C@H]2CN2C[C@@]3(CCCc4cc(Cl)ccc43)COc3ccc(cc32)C(=O)NS1(=O)=O [Example 426, (1S,3′R,6′R,7′S,8′E,12′R)-6-chloro-12′-ethyl-13′,13′-dioxido-15′-oxo-3,4-dihydro-2H-spiro[naphthalene-1,22′-[20]oxa[13]thia[1,14]diazatetracyclo[14.7.2.0^3,6.0^19,24]pentacosa [8,16,18,24]tetraen]-7′-yl acetate]	2.1 nM	941 nM	
C[C@@H]1[C@@H](C)C/C=C/[C@H](OC[C@H]2CCCO2)[C@@H]2CC[C@H]2CN2C[C@@]3(CCCc4cc(Cl)ccc43)COc3ccc(cc32)C(=O)NS1(=O)=O [Example 510, (1S,3′R,6′R,7′S,8′E,11′S,12′R)-6-chloro-11′,12′-dimethyl-7′-((2R)-tetrahydro-2-furanylmethoxy)-3,4-dihydro-2H,15′H-spiro[naphthalene-1,22′-[20]oxa[13]thia[1,14]diazatetracyclo[14.7.2.0^3,6.0^19,24]pentacosa [8,16,18,24]tetraen]-15′-one 13′,13′-dioxide]		587 nM	1.25 nM
COCCCO[C@H]1/C=C/C[C@H](C)[C@@H](C)S(=O)(=O)NC(=O)c2ccc3c(c2)N(C[C@@H]2CC[C@H]21)C[C@@]1(CCCc2cc(Cl)ccc21)CO3 [Example 512, (1S,3′R,6′R,7′S,8′E,11′S,12′R)-6-chloro-7′-(3-methoxypropoxy)-11′,12′-dimethyl-3,4-dihydro-2H,15′H-spiro[naphthalene-1,22′-[20]oxa[13]thia[1,14]diazatetracyclo[14.7.2.0^3,6.0^19,24]pentacosa [8,16,18,24]tetraen]-15′-one 13′,13′-dioxide]		362 nM	0.998 nM
C[C@@H]1[C@@H](C)C/C=C/[C@H](OCCN2CCCC(F)(F)C2)[C@@H]2CC[C@H]2CN2C[C@@]3(CCCc4cc(Cl)ccc43)COc3ccc(cc32)C(=O)NS1(=O)=O [Example 515, (1S,3′R,6′R,7′S,8′E,11′S,12′R)-6-chloro-7′-(2-(3,3-difluoro-1-piperidinyl)ethoxy)-11′,12′-dimethyl-3,4-dihydro-2H,15′H-spiro[naphthalene-1,22′-[20]oxa[13]thia[1,14]diazatetracyclo[14.7.2.0^3,6.0^19,24]pentacosa [8,16,18,24]tetraen]-15′-one 13′,13′-dioxide]		2520 nM	4.87 nM

Compounds with a lower IC50 [2], results first:

IC50 [1, 3]	IC50 [2]	IC50 [1, 4]	Compound
0.267 nM	325 nM		Cc1nnc(CO[C@H]2/C=C/CC[C@@H](C)S(=O)(=O)NC(=O)c3ccc4c(c3)N(C[C@@H]3CC[C@H]32)C[C@@]2(CCCc3cc(Cl)ccc32)CO4)o1 [Example 412, (1S,3′R,6′R,7′S,8′E,12′R)-6-chloro-12′-methyl-7′-((5-methyl-1,3,4-oxadiazol-2-yl)methoxy)-3,4-dihydro-2H,15′H-spiro[naphthalene-1,22′-[20]oxa[13]thia[1,14]diazatetracyclo[14.7.2.0^3,6.0^19,24]pentacosa [8,16,18,24]tetraen]-15′-one 13′,13′-dioxide]
	311 nM	1.5 nM	C[C@@H]1[C@@H](C)C/C=C/[C@H](OCCCl)[C@@H]2CC[C@H]2CN2C[C@@]3(CCCc4cc(Cl)ccc43)COc3ccc(cc32)C(=O)NS1(=O)=O [Example 511, (1S,3′R,6′R,7′S,8′E,11′S,12′R)-6-chloro-7′-(2-chloroethoxy)-11′,12′-dimethyl-3,4-dihydro-2H,15′H-spiro[naphthalene-1,22′-[20]oxa[13]thia[1,14]diazatetracyclo[14.7.2.0^3,6.0^19,24]pentacosa [8,16,18,24]tetraen]-15′-one 13′,13′-dioxide]
	235 nM	0.188 nM	C[C@@H]1[C@@H](C)C/C=C/[C@H](OCCCO)[C@@H]2CC[C@H]2CN2C[C@@]3(CCCc4cc(Cl)ccc43)COc3ccc(cc32)C(=O)NS1(=O)=O [Example 509, (1S,3′R,6′R,7′S,8′E,11′S,12′R)-6-chloro-7′-(3-hydroxypropoxy)-11′,12′-dimethyl-3,4-dihydro-2H,15′H-spiro[naphthalene-1,22′-[20]oxa[13]thia[1,14]diazatetracyclo[14.7.2.0^3,6.0^19,24]pentacosa [8,16,18,24]tetraen]-15′-one 13′,13′-dioxide]
0.144 nM	208 nM		C[C@@H]1CC/C=C/[C@H](OCc2ncn(C)n2)[C@@H]2CC[C@H]2CN2C[C@@]3(CCCc4cc(Cl)ccc43)COc3ccc(cc32)C(=O)NS1(=O)=O [Example 410, (1S,3′R,6′R,7′S,8′E,12′R)-6-chloro-12′-methyl-7′-((l-methyl-1H-1,2,4-triazol-3-yl)methoxy)-3,4-dihydro-2H,15′H-spiro[naphthalene-1,22′-[20]oxa[13]thia[1,14]diazatetracyclo[14.7.2.0^3,6.0^19,24]pentacosa [8,16,18,24]tetraen]-15′-one 13′,13′-dioxide]
0.249 nM	198 nM		CC[C@@H]1CC/C=C/[C@H](OCc2ncn(C)n2)[C@@H]2CC[C@H]2CN2C[C@@]3(CCCc4cc(Cl)ccc43)COc3ccc(cc32)C(=O)NS1(=O)=O [Example 423, (1S,3′R,6′R,7′S,8′E,12′R)-6-chloro-12′-ethyl-7′-((1-methyl-1H-1,2,4-triazol-3-yl)methoxy)-3,4-dihydro-2H,15′H-spiro[naphthalene-1,22′-[20]oxa[13]thia[1,14]diazatetracyclo[14.7.2.0^3,6.0^19,24]pentacosa [8,16,18,24]tetraen]-15′-one 13′,13′-dioxide]
	184 nM	0.395 nM	C[C@@H]1[C@@H](C)C/C=C/[C@H](OCCN(C)C)[C@@H]2CC[C@H]2CN2C[C@@]3(CCCc4cc(Cl)ccc43)COc3ccc(cc32)C(=O)NS1(=O)=O [Example 513, (1S,3′R,6′R,7′S,8′E,11′S,12′R)-6-chloro-7′-(2-(dimethylamino)ethoxy)-11′,12′-dimethyl-3,4-dihydro-2H,15′H-spiro[naphthalene-1,22′-[20]oxa[13]thia[1,14]diazatetracyclo[14.7.2.0^3,6.0^19,24]pentacosa [8,16,18,24]tetraen]-15′-one 13′,13′-dioxide]
0.275 nM	111 nM		C[C@@H]1CC/C=C/[C@H](OCCN2CCOCC2)[C@@H]2CC[C@H]2CN2C[C@@]3(CCCc4cc(Cl)ccc43)COc3ccc(cc32)C(=O)NS1(=O)=O [Example 418, (1S,3′R,6′R,7′S,8′E,12′R)-6-chloro-12′-methyl-7′-(2-(4-morpholinyl)ethoxy)-3,4-dihydro-2H,15′H-spiro[naphthalene-1,22′-[20]oxa[13]thia[1,14]diazatetracyclo[14.7.2.0^3,6.0^19,24]pentacosa [8,16,18,24]tetraen]-15′-one 13′,13′-dioxide]

— US12091425B2 (AMGEN INC., priority 2016, dated 2024)
